Laboratory results from patent publication US20210244028A1, “TREATMENT FOR REMOVING ECTOPARASITES FROM FISH” (priority 2018, published 2021).
Read-outs that look alike come from different tables or passages of the source.

Tests used:
Lepeophtheirus salmonis [1] = assay: Relative efficacy study, 60 min static bucket treatment of infected salmon (Example 2.2); type: in vivo
Method: 120 salmon fish (Salmo salar) were divided across five flow-through treatment tanks and acclimated for 24 hours prior to parasite challenge.
Egg strings removed from ovigerous female Lepeophtheirus salmonis were collected and cultured until infective copepodids were produced. The copepodids were then evenly distributed into five bottles containing sea water and stored at ˜10° C. overnight. In preparation for the challenge, water flows in the treatment tanks were stopped and light levels reduced. 650±20 copepodids (˜27 per host) were added to the static water and the tanks maintained in total darkness for 7 hours after which light levels were raised and the water flow resumed.
Fish were randomly divided into ten groups of ten fish and held in static ‘treatment buckets’ containing 30 L of water and high aeration as shown in Table 3. […]
Experimental animals were monitored closely for adverse reactions and the status of the parasite infection. Where possible the time at which all parasites were thought to have detached was recorded. As treatments were performed in static systems, temperature and dissolved oxygen were regularly monitored throughout the procedure and aeration adjusted as required.
After the treatment period, the test animals were removed from the treatment solution and humanly euthanised. Each fish was weighed, measured, and its individual parasite burden assessed. The number of parasites in the treatment solution was also counted and qualitatively assessed for: sex and maturity, apparent signs of neonicotinoid poisoning, and/or potential recovery.
Logistic regression was used to compare parasite clearance after treatment with each of the concentration. Logistic regression analyses were performed using the glm function in R v.2.13.0 and assumed a binomial or quasi-binomial error distribution (determined through the comparison of the null deviance with the degrees of freedom).

L. salmonis = assay: Field well boat treatment, pre- vs post-treatment sea lice counts (Example 4); type: in vivo; conditions: 20 ppm, 60 minutes, 30 fish per pen, within 24 hours after treatment, pens A-D
Method: The effectiveness of imidacloprid against pre-adult and adult stages of L. salmonis and Caligus sp. infections on farmed Atlantic salmon was investigated by performing pre- and post-treatment sea lice counts on salmon undergoing a treatment with imidacloprid. This trial was conducted at a commercial salmon farm in Norway. The salmon were pumped onto a well boat and were exposed to 20 ppm imidacloprid for 60 minutes. The average weight of the salmon was 3.5 kg and the average number of salmon per pen was 180,000. 30 fish per pen were assessed for L. salmonis and Caligus sp., and the number of each L. salmonis life stage found was recorded. This was performed within 24 hours prior to treatment, and within 24 hours after treatment.
These assessments were made on four pens of salmon in total. Prior to treatment, fish were crowded within the pen to enable them to be pumped into the well boat, which is where the pre-treatment sea lice assessments were conducted. The post-treatment sea lice assessments were made by removing fish from the outflow pipe on the well boat.
At all time points, 3 fish were removed and placed into an anaesthetic bath. This was repeated 10 times until 30 fish had been assessed.
The numbers of sea lice observed per fish for this trial for each of the four tested pens according to sea lice life cycle state, pre- or post-administration of active are presented in Table 5.

[2] = tested on: pre-adult and adult sea lice; assay: Timescale of effect on sea lice on killed salmon suspended in treatment water (Example 5)
Method: To determine the timescale of the effect of imidacloprid, salmon infected with pre-adult and adult sea lice were removed from a stock tank and killed using a sharp blow to the head.
For fish exposed to 0 ppm imidacloprid (negative controls), observations were made for 60 minutes. […] Three fish per treatment group were tested.
Observations on the time at which lice left the host, and the sex and stage of the sea louse was noted. Any lice that left the host were transferred to clean sea water immediately. Furthermore, any lice remaining on the host at the end of the exposure period were removed from the host and transferred to clean sea water.
Lice were observed both shortly after and approximately 2 hours after the end of the exposure period.
The ratio of male to female sea lice was around 50:50. The water temperature was around 12° C.

Atlantic salmon = assay: Fish mortality and behaviour during bath treatment (Example 7); type: in vivo; conditions: 20 ppm to 200 ppm, 3 to 60 minutes
Method: To determine the concentration- and time-dependence of imidacloprid treatment in vivo, Atlantic salmon (average of 320.9 g) were challenged with imidacloprid in seawater ([…] salinity) at 12° C. The water level in the tank was lowered and aeration was employed during administration of the active. The salmon louse copepodid culture was counted and adjusted to obtain a target level of around 40 copepodids per fish in the challenge tank at each challenge time point.
Fish behaviour/appearance was assessed in vivo during each test. Any changes in behaviour and/or appearance including mortality were recorded.

fish = assay: Safety of imidacloprid treatment on fish (Example 8); type: in vivo; conditions: 65 ppm
Method: The safety of the imidacloprid treatment on fish was assessed. Fish held in a flow through tank containing 271.8 L of sea water were exposed to 65 ppm w/v of the active ingredient imidacloprid. 17.67 g of imidacloprid was dissolved in 100 ml of dimethyl sulfoxide (DMSO) and the solution was added to approximately 900 ml sea water and mixed. The flow on the through tank was disabled and the solution of imidacloprid was added.
The fish were exposed to 65 ppm imidacloprid in static water for 1 hour and observed for behavioural changes at 5-10 minute intervals. The fish were then held for a further 7 days before being terminated.

Lepeophtheirus salmonis [3] = conditions: 20 ppm (nitenpyram 19 ppm); for percentage responsiveness for sea lice recovered from fish at the end of the treatment period: 24 h post-treatment; for percentage responsiveness of lice recovered from tank at treatment end at 24 hours post-treatment: lice knocked off fish
Method: Lice were monitored continuously for the duration of the exposure and behavioural observations noted, including detachment of lice from fish. At the end of exposure lice were either removed from the tank or fish, placed into small vented plastic screw-top containers (125 mL, LDPE, 25 mm hole drilled into lid and secured with 200 μm mesh), and transferred to a clean tank supplied with filtered sea water and held there for 24 h. Lice which had detached from fish were kept separate from those that had not detached.
24 h post-treatment lice were removed from the screw-top containers to check if they were alive and, if so, if they were responsive. Categories were defined as follows: alive—movement detected; responsive—alive and actively avoids stimulation in a coordinated manner; dead—no movement detected.
Lice defined as responsive could potentially re-attach to a fish. After assessment lice were transferred to 70% alcohol in case determination of instar and sex was required.

In the case of `O=[N+]([O-])NC1=NCCN1Cc1ccc(Cl)nc1` [imidacloprid], the “Parasites remained attached to their hosts at the sampling point” value (“Parasites remained attached” for short) (Lepeophtheirus salmonis [1]; 10 mg/l) is reported as 20%, the “Parasites remained attached” value (Lepeophtheirus salmonis [1]; 25 mg/l) is reported as 3% and the “Parasites remained attached” value (Lepeophtheirus salmonis [1]; 15 and 20 mg/l) is reported as 8%. The “Post-treatment sea lice count, Adult Female” value (L. salmonis) was 0.0 sea lice per fish, the “Post-treatment sea lice count, Adult Male” value (L. salmonis) was 0.0 sea lice per fish and the “Post-treatment sea lice count, Gravid Female” value (L. salmonis) was 0.0 sea lice per fish. The “Post-treatment sea lice count, Pre-Adult Female” value (L. salmonis) was 0.0 sea lice per fish, the “Post-treatment sea lice count, Pre-Adult Male” value (L. salmonis) was 0.0 sea lice per fish and the “Post-treatment sea lice count, Total” value (L. salmonis) was 0.0 sea lice per fish. The “Lice considered dead at 30 minutes post-exposure” value ([2]; 20 mg/L, of 49 lice exposed) was “two”, the “Lice considered dead at 2 hours p.e.” value ([2]; 50 ppm) was 14 and the “Lice considered dead at 30 minutes” value ([2]; 50 ppm, of 21 lice exposed) was “four”. For the same molecule, the “Lice considered dead at 2 hours p.e.” value ([2]; 100 ppm) was 17/28, the “Lice considered dead at the end of the exposure period” value ([2]; 100 ppm, of 28 lice exposed) was “four” and the “Lice considered dead 2 hours post-exposure” value ([2]; 200 ppm, of 26 lice exposed) was “Six”. For the same molecule, the “Lice considered dead at the end of the exposure period” value ([2]; 200 ppm, of 26 lice exposed) was “four”, the “Lice considered dead 30 minutes p.e.” value ([2]; 500 ppm) was “Six out of 20” and the “Lice considered dead at 2 hours p.e.” value ([2]; 500 ppm) was 15/20. The “Lice that left the host within the first 9 minutes” value ([2]; 500 ppm, dead host, around 12° C.) was “around 70%”, the “Lice that left the host within the first 15 minutes” value ([2]; between 20 and 200 ppm, dead host, around 12° C.) was “around 50%” and the “Fish mortality in the trial” value (Atlantic salmon) was “No fish died”. The “Adverse reactions during a further 7 days” value (fish; 1 hour exposure, 7 days monitoring) was “no adverse reactions”, the “External pathologies on termination” value (fish; 1 hour exposure, terminated after 7 days) was “no external pathologies” and the “Fish behaviour during the exposure period” value (fish; static water, 1 hour) was “No observable changes in fish behaviour”. For the same molecule, the “percentage responsiveness for sea lice recovered from fish at the end of the treatment period” value (Lepeophtheirus salmonis [3]; exposure 5 min) was 100%, the “percentage responsiveness for sea lice recovered from fish at the end of the treatment period” value (Lepeophtheirus salmonis [3]; exposure 10 min) was 100% and the “percentage responsiveness of lice recovered from tank at treatment end at 24 hours post-treatment” value (Lepeophtheirus salmonis [3]; exposure 10 min) was 100%. For the same molecule, the “percentage responsiveness for sea lice recovered from fish at the end of the treatment period” value (Lepeophtheirus salmonis [3]; exposure 15 min) was 45%, the “percentage responsiveness of lice recovered from tank at treatment end at 24 hours post-treatment” value (Lepeophtheirus salmonis [3]; exposure 15 min) was 33% and the “percentage responsiveness for sea lice recovered from fish at the end of the treatment period” value (Lepeophtheirus salmonis [3]; exposure 30 min) was 50%. For the same molecule, the “percentage responsiveness of lice recovered from tank at treatment end at 24 hours post-treatment” value (Lepeophtheirus salmonis [3]; exposure 30 min) was 10%, the “percentage responsiveness for sea lice recovered from fish at the end of the treatment period” value (Lepeophtheirus salmonis [3]; exposure 60 min) was “no lice responsive” and the “percentage responsiveness for sea lice recovered from fish at the end of the treatment period” value (Lepeophtheirus salmonis [3]; exposure 60 min, listed as Imidacloprid) was 0%. For the same molecule, the “percentage responsiveness of lice recovered from tank at treatment end at 24 hours post-treatment” value (Lepeophtheirus salmonis [3]; exposure 60 min) was 0%.
